In paper PMC11879040, “Advancing systemic toxicity risk assessment: Evaluation of a NAM-based toolbox approach” (Toxicological Sciences, 2024):
Values after ≈ are worked out from the molar mass of the structure shown. Read-outs that look alike come from different tables or passages of the source.

Assays:
[1] = system: Potassium Voltage-Gated Channel Kv non-selective, KCNQ1 (r); assay: IPP KCNQ1 binding (antagonist radioligand); parameters: species or system rat; conditions: control α-dendrotoxin
[2] = system: Gamma-aminobutyric acid receptor subunit alpha-1 BZD site, GABRA1A (r); assay type: binding, rat
[3] = system: Sodium channel protein type 5 subunit alpha (site 2), SCN5A (r); assay type: binding, rat
[4] = molecular target: T1, Adenosine receptor A2a, ADORA2A (h) (Homo sapiens, UniProt P29274); assay: IPP ADORA2A binding (agonist radioligand); conditions: control NECA
T1 construct: purchased Eurofins Cerep (SafetyScreen44-based IPP panel)

[5] = molecular target: T2, Estrogen receptor, ER1 (h) (Homo sapiens, UniProt P03372); assay: IPP ER1 coactivator recruitment (agonist); assay type: biochemical; conditions: estriol
T2 construct: purchased Eurofins Cerep (SafetyScreen44-based IPP panel)
T2 sequence (P03372 1-595): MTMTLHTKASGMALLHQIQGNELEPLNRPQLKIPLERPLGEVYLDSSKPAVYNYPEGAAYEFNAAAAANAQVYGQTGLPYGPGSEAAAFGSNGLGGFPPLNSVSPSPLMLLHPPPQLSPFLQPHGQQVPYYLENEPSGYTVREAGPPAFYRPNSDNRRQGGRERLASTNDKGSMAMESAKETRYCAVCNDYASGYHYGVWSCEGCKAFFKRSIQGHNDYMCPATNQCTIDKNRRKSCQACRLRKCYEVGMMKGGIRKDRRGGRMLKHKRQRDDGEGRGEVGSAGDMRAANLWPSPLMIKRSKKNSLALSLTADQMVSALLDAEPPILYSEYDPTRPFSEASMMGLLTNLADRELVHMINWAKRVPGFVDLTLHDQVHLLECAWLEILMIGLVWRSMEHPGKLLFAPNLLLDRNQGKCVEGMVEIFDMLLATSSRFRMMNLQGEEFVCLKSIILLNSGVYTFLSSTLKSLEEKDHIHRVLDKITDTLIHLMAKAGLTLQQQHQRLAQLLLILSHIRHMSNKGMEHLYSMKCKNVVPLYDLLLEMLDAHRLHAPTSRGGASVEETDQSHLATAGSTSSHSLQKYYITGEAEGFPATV

[6] = molecular target: T2, Estrogen receptor, ER1 (h); assay: IPP ER1 coactivator recruitment (antagonist); assay type: biochemical; conditions: estriol
[7] = system: Thyroid hormone receptor alpha, THRA (h); assay: IPP THRA coactivator recruitment (agonist); assay type: biochemical, human; conditions: agonist, T3
Tubulin (r) = assay: IPP Tubulin binding; parameters: species or system rat; conditions: ligand/control Colchicine
HepG2 cells [8] = assay: Cell stress panel (CSP), 24 h, 8 concentrations, BIFROST global PoD; assay type: cell-based; conditions: for pod_cell_stress PoD: HepG2, cell stress panel PoD
Method: Compounds were tested using the previously developed cell stress panel ([Hatherell et al. 2020]) and the expanded biomarker panel outlined in Middleton et al. HepG2 cells were treated with all compounds for 24 h across 8 concentrations prior to biomarker analysis. The same plate layout and number of replicates (3 biological and 2 technical) were used as previously for each assay within the panel.

HepG2 cells [9] = assay: High-throughput transcriptomics (HTTr, TempO-Seq), HepG2, 24 h; assay type: cell-based, human; conditions: HepG2; for pod_httr_bifrost PoD: HTTr BIFROST PoD; for podl_path_minbmd PoD: HTTr minimum pathway BMD(L)
Method: (§1) HepG2, HepaRG, and MCF7 cells were treated with each compound for 24 h across a dose range of 7 concentrations and lysed using TempO-Seq lysis buffer (BioSpyder Technologies, proprietary kit, see [Middleton et al. 2022] for method details). Sequencing was performed using TempO-Seq (BioClavis) version 2 of the human whole transcriptome panel and analyzed as described previously in Middleton et al.

HepaRG cells = assay: High-throughput transcriptomics (HTTr, TempO-Seq), HepaRG, 24 h; assay type: cell-based, human; conditions: HepaRG; for pod_httr_bifrost PoD: HTTr BIFROST PoD; for podl_path_minbmd PoD: HTTr minimum pathway BMD(L)
Method: as §1

MCF7 cells = assay: High-throughput transcriptomics (HTTr, TempO-Seq), MCF7, 24 h; assay type: cell-based, human; conditions: MCF-7; for pod_httr_bifrost PoD: HTTr BIFROST PoD; for podl_path_minbmd PoD: HTTr minimum pathway BMD(L)
Method: as §1

[10] = system: Glutamate receptor ionotropic NMDA 1 non-selective, GRIN1 (r)
[11] = molecular target: Potassium voltage-gated channel subfamily H member 2 hERG, KCNH2 (h) (Homo sapiens, UniProt Q12809)
physchem [12] = assay: physchem
rat = conditions: cited from earlier work; for PoD (NOAEL): rat, ref ToxRefDB/Paul-Friedman et al. (2020)/regulatory opinions
[13] = PBK input, ref [11], cited from earlier work
[14] = Assignment of risk classifications to benchmark chemical-exposure scenarios; conditions: for risk: Oral, from table S1
[15] = system: 63 targets with known safety liabilities; assay: In vitro pharmacological profiling (IPP) panel, screening at 10 or 100 µM and dose response, minimum IC50/AC50; assay type: biochemical; conditions: lowest AC50 across IPP panel (systemic targets); cell_type -; read-out: ipp_lowest_ac50_systemic PoD
dog = conditions: 52 weeks, ref ToxRefDB/Paul-Friedman et al. (2020)/regulatory opinions; cited from earlier work
[16] = molecular target: 5-hydroxytryptamine receptor 2B, HTR2B (h) (Homo sapiens, UniProt P41595); assay: biochemical
[17] = molecular target: Voltage-dependent L-type Ca2+ channel (dihydropyridine site), CACNA1C (r) (Rattus norvegicus, UniProt P22002); assay type: binding
[18] = human
[19] = human; remark: listed apart in the source
physchem [20] = conditions: pH 5.22, water
[21] = cited from earlier work
[22] = 100 uM, * denotes assay interference (2-Amino-6-chloro-4-nitrophenol, HC Red 3)
[23] = IV bolus 100 mg solution, 20 renal transplant patients, validation, ref Lin et al. 1980
[24] = IV bolus 100 mg solution, uremic patients, validation, ref Odlind et al. 1986
[25] = Oral tablet 100 mg, fasted, uremic patients, calibration, ref Odlind et al. 1986

T1 sequence (P29274 whole entry): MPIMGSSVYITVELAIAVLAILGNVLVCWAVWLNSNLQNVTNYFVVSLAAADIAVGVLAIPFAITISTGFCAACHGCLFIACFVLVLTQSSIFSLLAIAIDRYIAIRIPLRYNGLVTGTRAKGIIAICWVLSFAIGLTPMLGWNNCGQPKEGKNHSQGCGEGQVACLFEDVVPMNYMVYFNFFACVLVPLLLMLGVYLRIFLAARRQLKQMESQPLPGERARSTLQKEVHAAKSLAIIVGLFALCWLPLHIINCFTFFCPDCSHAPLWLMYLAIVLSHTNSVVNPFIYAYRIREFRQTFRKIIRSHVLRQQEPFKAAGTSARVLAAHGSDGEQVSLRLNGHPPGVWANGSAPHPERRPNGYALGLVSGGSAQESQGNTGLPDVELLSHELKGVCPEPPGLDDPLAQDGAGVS
Potassium voltage-gated channel subfamily H member 2 hERG, KCNH2 (h), sequence (Q12809 whole entry): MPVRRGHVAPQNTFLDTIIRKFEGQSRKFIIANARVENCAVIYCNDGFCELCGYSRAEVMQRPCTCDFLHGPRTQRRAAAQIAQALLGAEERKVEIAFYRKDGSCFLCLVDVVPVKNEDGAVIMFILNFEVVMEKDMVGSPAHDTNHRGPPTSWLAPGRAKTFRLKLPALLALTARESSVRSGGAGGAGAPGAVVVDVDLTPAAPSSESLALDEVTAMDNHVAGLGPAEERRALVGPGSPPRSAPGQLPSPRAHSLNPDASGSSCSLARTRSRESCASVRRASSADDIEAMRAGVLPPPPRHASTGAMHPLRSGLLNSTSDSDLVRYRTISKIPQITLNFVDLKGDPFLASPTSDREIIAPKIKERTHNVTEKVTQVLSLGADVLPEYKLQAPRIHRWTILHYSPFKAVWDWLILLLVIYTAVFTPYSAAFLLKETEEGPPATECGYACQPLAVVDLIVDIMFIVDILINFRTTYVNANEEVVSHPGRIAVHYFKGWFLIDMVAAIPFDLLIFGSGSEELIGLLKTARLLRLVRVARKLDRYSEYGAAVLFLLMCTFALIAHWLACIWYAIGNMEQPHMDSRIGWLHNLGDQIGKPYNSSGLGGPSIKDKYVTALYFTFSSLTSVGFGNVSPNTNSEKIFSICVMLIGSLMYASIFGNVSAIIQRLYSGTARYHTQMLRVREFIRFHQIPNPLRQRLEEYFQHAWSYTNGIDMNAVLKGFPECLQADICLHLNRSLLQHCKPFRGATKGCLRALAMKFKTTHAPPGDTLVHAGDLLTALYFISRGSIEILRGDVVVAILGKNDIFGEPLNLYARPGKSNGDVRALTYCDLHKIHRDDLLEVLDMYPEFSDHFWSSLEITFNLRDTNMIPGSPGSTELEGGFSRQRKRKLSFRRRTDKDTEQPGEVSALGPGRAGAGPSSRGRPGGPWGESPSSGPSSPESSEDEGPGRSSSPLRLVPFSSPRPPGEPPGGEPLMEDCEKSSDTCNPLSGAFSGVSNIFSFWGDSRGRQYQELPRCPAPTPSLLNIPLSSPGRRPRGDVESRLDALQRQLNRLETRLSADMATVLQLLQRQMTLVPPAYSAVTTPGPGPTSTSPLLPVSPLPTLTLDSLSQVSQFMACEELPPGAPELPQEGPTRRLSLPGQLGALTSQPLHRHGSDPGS
5-hydroxytryptamine receptor 2B, HTR2B (h), sequence (P41595 whole entry): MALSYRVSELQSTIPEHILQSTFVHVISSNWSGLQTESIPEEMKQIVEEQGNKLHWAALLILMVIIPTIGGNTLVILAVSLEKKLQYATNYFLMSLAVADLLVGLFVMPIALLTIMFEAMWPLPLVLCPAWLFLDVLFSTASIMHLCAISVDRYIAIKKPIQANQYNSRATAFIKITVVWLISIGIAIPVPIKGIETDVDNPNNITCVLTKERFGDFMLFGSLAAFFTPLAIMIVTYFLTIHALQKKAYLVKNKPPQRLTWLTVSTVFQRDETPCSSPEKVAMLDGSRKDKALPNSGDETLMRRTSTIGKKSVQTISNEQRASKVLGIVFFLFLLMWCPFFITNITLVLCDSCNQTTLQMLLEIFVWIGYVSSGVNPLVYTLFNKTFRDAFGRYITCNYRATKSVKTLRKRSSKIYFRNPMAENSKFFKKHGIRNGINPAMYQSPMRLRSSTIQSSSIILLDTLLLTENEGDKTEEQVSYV
Voltage-dependent L-type Ca2+ channel (dihydropyridine site), CACNA1C (r), sequence (P22002 whole entry): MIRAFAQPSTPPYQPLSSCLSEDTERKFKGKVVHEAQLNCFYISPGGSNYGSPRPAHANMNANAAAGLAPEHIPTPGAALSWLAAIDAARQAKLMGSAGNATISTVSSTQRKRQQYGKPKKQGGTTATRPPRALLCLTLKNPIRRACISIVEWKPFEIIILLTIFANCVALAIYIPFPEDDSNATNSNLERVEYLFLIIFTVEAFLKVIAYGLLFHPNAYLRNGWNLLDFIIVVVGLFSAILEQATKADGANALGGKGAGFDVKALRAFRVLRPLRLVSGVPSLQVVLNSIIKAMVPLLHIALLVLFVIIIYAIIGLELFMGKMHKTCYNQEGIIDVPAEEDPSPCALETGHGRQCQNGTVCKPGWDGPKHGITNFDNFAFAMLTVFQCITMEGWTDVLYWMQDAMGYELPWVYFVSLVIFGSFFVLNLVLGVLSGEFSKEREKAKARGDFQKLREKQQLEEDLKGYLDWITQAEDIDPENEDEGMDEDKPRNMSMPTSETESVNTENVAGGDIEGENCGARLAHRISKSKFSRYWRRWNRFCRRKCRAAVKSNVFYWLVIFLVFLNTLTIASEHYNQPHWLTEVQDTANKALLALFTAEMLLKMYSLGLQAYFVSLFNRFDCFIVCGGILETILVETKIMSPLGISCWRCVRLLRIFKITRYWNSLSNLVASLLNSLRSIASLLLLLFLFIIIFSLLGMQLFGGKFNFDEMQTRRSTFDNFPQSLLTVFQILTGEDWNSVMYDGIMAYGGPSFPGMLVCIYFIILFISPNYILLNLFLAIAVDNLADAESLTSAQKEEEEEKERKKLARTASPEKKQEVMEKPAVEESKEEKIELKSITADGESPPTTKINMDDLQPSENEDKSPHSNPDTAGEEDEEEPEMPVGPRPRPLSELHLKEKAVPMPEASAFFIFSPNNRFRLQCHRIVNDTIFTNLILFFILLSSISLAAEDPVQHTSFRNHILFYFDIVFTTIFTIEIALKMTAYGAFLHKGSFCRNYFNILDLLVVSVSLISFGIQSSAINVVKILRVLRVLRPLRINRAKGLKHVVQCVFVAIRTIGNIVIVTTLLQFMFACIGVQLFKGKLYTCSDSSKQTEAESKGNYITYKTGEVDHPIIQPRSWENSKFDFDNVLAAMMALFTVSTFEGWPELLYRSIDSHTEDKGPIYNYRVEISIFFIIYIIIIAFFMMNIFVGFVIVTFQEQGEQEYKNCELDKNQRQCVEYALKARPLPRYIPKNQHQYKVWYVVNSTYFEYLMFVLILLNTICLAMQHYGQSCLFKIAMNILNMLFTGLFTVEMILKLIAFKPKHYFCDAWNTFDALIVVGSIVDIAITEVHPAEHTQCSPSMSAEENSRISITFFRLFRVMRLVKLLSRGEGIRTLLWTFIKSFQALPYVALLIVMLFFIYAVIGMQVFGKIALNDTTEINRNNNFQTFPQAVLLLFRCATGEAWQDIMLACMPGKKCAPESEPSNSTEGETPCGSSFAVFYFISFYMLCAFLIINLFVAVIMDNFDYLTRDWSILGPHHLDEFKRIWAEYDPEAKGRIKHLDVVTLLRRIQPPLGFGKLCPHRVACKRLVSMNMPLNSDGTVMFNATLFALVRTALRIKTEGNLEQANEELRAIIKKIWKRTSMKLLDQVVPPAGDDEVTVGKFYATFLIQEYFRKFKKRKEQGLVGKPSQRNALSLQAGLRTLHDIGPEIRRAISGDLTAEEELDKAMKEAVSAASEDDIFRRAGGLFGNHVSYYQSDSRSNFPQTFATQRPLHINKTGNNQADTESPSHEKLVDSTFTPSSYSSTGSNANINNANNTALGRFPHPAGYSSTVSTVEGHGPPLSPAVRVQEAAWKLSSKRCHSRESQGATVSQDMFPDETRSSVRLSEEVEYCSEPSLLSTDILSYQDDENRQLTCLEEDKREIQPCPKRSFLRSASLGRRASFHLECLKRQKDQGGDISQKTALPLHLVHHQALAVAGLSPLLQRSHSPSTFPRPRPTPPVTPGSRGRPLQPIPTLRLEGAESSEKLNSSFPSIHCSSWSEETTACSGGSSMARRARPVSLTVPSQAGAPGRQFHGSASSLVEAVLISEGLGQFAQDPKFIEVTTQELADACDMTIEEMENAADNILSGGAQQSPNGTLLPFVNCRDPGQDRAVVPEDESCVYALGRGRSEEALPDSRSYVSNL

CC(C)[C@H](N)C(=O)O [L-valine, L-Valine]
Specific binding ([1]; IPP screening at 100 uM): 15.0% | Specific binding ([2]; IPP screening at 100 uM, control diazepam): 1.9% | Specific binding ([3]; IPP screening at 100 uM, control veratridine): 12.2% | Specific binding ([4]; IPP screening at 100 uM): -4.2% | IPP screening %, Coactivator recruitment [5, 22]: 0.0% | IPP screening %, Coactivator recruitment [6, 22]: -2.0% | IPP screening %, Coactivator recruitment [7, 22]: 2.0% | IPP screening %, Specific binding (Tubulin (r); 100 uM): 2.0% | pod_cell_stress PoD (HepG2 cells [8]): 39.7854 µM | pod_httr_bifrost PoD (HepG2 cells [9]): 316.528 µM | podl_path_minbmd PoD (HepG2 cells [9]): 625 µM | pod_httr_bifrost PoD (HepaRG cells): 162.177 µM | podl_path_minbmd PoD (HepaRG cells): 351.712 µM | pod_httr_bifrost PoD (MCF7 cells): 26.9475 µM | podl_path_minbmd PoD (MCF7 cells): 43.6766 µM | Specific binding ([10]; IPP screening at 100 uM, control CGS 19755): 0.4% | IPP screening %, Specific binding ([11]; human): -3.8% | logP (physchem [12]): -2.21 | PoD (NOAEL) (rat; repeat dose): 666 mg/kg bw/day | pKa Value ACID ([13]; level L2): 2.3 | pKa Value BASE ([13]; levels L2/L3): 9.55 | Risk Classification ([14]; Oral 26 mg/kg bw/day): Low risk | Risk Classification ([14]; Oral 4000 mg/day): Low risk | risk ([14]; 26 mg/kg mean requirements, Tablet, Exp1): 0 | risk ([14]; Dietary 4000 mg/day, Food & Drink, Exp2): 0

CC1(C)C(C=C(Cl)Cl)C1C(=O)OC(C#N)c1cccc(Oc2ccccc2)c1 (stereo not drawn) [Cypermethrin, Cyano(3-phenoxyphenyl)methyl 3-(2,2-dichloroethenyl)-2,2-dimethylcyclopropane-1-carboxylate]
Specific binding ([1]; IPP screening at 10 uM): 0.9% | Specific binding ([2]; IPP screening at 10 uM, control diazepam): 5.5% | Specific binding ([3]; IPP screening at 10 uM, control veratridine): -112.7% | Specific binding ([4]; IPP screening at 10 uM): 0.1% | IPP screening %, Coactivator recruitment ([5]; 10 uM): 0.0% | IPP screening %, Coactivator recruitment ([6]; 10 uM): 0.0% | IPP screening %, Coactivator recruitment ([7]; 10 uM): 0.0% | IPP screening %, Specific binding (Tubulin (r); 10 uM): 8.0% | pod_cell_stress PoD (HepG2 cells [8]): 7.881 µM | pod_httr_bifrost PoD (HepG2 cells [9]): 2.669 µM | podl_path_minbmd PoD (HepG2 cells [9]): 2.638 µM | pod_httr_bifrost PoD (HepaRG cells): 4.402 µM | podl_path_minbmd PoD (HepaRG cells): 35.2754 µM | pod_httr_bifrost PoD (MCF7 cells): 8.9686 µM | podl_path_minbmd PoD (MCF7 cells): 25.4106 µM | AC50 [15]: 490 nM | Specific binding ([10]; IPP screening at 10 uM, control CGS 19755): 11.4% | IPP screening %, Specific binding ([11]; 10 uM, [3H] Dofetilide, control Terfenadine): 22.7% | Lowest NOAEL (rat; rat chronic study, route of administration not reported, ref not given): Lowest NOAEL is 0.5 mg/kg from a rat chronic study, but the route of administration isn't reported. 1 mg/kg/day is NOAEL from 52 week dog study | PoD (NOAEL) (dog): 1 mg/kg bw/day | IC50 [16]: > 570 nM

Cn1cnc([N+](=O)[O-])c1Sc1ncnc2nc[nH]c12 [Azathioprine, 6-[(1-Methyl-4-nitro-1H-imidazol-5-yl)sulfanyl]-7H-purine]
Specific binding [17]: -9.0% | Specific binding ([1]; IPP screening at 10 uM): 1.0% | Specific binding [2]: 17.2% | Specific binding [3]: -8.7% | Specific binding ([4]; IPP screening at 10 uM): 38.3% | IPP screening %, Coactivator recruitment ([7]; 10 uM): 3.0% | IPP screening %, Specific binding (Tubulin (r); 10 uM): 6.0% | Bioactivity Observations: cell stress panel (HepG2 cells [8]): The leading PoD is extrapolated below the lowest dose tested in the CSP | pod_cell_stress PoD (HepG2 cells [8]): 3.96e-05 µM | pod_httr_bifrost PoD (HepG2 cells [9]): 0.01764 µM | podl_path_minbmd PoD (HepG2 cells [9]): 0.1634 µM | pod_httr_bifrost PoD (HepaRG cells): 0.8426 µM | podl_path_minbmd PoD (HepaRG cells): 3.742 µM | pod_httr_bifrost PoD (MCF7 cells): 0.1265 µM | podl_path_minbmd PoD (MCF7 cells): 0.2237 µM | Specific binding [10]: 4.2% | risk [18]: 1 | Intrinsic Liver Clearance [19]: 4323.84 L/h | solubility (physchem [20]): 231 µg/mL (≈ 833 µM) | PoD (NOAEL) (rat; 28 days, haematological changes): 3 mg/kg bw/day | Reported AUC0-t [21, 23]: 430 ng·h/mL | Reported cmax [21, 23]: 0.9163 µg/mL | Reported tmax [21, 23]: 0 min | Reported AUC0-t [21, 24]: 1032.5 ng·h/mL | Reported cmax [21, 24]: 0.7498 µg/mL | Reported tmax [21, 24]: 7.524 min | Reported AUC0-t [21, 25]: 100 ng·h/mL | Reported cmax [21, 25]: 0.0478 µg/mL | Reported tmax [21, 25]: 32.87 min
